The values that follow come from patent publication US20250136722A1, “CYTOTOXICITY TARGETING CHIMERAS” (GLAXOSMITHKLINE INTELLECTUAL PROPERTY DEVELOPMENT LIMITED, priority 2021, published 2025).

Some results are limits rather than exact numbers.

Test [1] relates to Anti-cotinine antibody SEQ ID NO: 11 / SEQ ID NO: 12 (rabbit version). Kind of test: Binding of rabbit anti-cotinine antibody to ARM compounds by SPR, Biacore 8k, 25° C. (Example 202). The source says: Anti-cotinine antibodies having a heavy chain sequence of SEQ ID NO: 9 and a light chain sequence of SEQ ID NO: 10 (humanized version) or a heavy chain sequence of SEQ ID NO: 11 and a light chain sequence of SEQ ID NO: 12 (rabbit version) were captured via the Fc domain to a protein A or A/G surface on flow cell 2 of a CM5 sensor chip using the Biacore 8k.
After antibody capture, a 1500 second wait step was included to reduce drift in the binding step. ARM compounds of Formula (I) were then flowed over the captured antibodies at varying top concentrations ranging from 250 nM to 4 μM (see Table 6 below for top concentration values). The top concentration was diluted 4-fold over 5 dilutions (with a 0 nM compound cycle included to blank subtract the data). Association and dissociation times of the ARMs compounds of Formula (I) varied between experiments as follows and indicated in Table 6 below: reference 1—association for 600 seconds and dissociation for 1200 seconds at 20 μl/min; reference 2—association for 240 seconds and dissociation for 300 seconds at 30 μl/min; reference 3—association for 360 seconds and dissociation for 600 seconds at 30 μl/min. Anti-cotinine antibody bound to the protein A or A/G surface was regenerated using 50 mM NaOH. Experiments were run at 25° C. at pH 7.4 using HBS-EP+ buffer using Biacore 8K control software and evaluated using Biacore Insight Evaluation software. Curves were fit with the 1:1 kinetic fit inherent to the software, utilising a local Rmax and local drift setting.
Anti-cotinine antibody was tested for binding to ARMs compounds of Formula (I) of the invention in the above assay in or more experimental runs and the results are shown in Table 6 below. Affinity is reported as a pKd value. The pKd value is the negative log of the Kd value, wherein the Kd value is the dissociation constant measured in molar (M) as noted above. For compounds tested in more than one experimental run, the pKd value is reported as an average.
In general terms: In SPR one partner is held on a chip, and binding of the other changes the refractive index at the surface.

Test [2] has as its target human alpha1 nicotinic acetylcholine (nACh) receptor (Homo sapiens, UniProt P02708+Q07001). Kind of test: Nicotinic acetylcholine receptor antagonism assay, IONFlux automated patch clamp (Example 203). The settings on record: for IC50: nAChR antagonism, ACh stimulated, patch clamp; for Emax at 10 µM: maximum percentage antagonism at maximum concentration tested 10 μM. Type of test: cell-based. Put shortly: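 Human α1 nAChR-expressing cells were preincubated with compound (top 10 μM or 100 μM), then stimulated with 10 mM ACh; peak currents were recorded by IONFlux automated patch clamp. Percent inhibition versus ACh-alone control was vehicle- and rundown-corrected, then fitted to give IC50, with maximal antagonism at the top concentration; recordings with control current <500 pA were excluded.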
Background: Patch clamp records ionic current or voltage across a cell membrane.

The target of test [3] is Anti-cotinine antibody (SEQ ID NO: 11 / SEQ ID NO: 12, rabbit variable region with human IgG1 Fc domain). Kind of test: Binding of anti-cotinine antibody to ARM compounds by SPR, Biacore T200, 37° C. (Example 202). The conditions noted are these: pH 7.4, rabbit variable region/human IgG1 Fc antibody captured on protein A. Put shortly: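 Run at 37° C. in 10 mM HEPES pH 7.4, 150 mM NaCl, 0.005% P20, 1% DMSO. Compound titrated from 200 nM (five 3-fold steps) over protein A-captured antibody, with 200/2000 s association/dissociation. 1:1 kinetic fit gave kon, koff, Kd and residence time (1/koff); pKd averaged where runs repeated.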

[4] abbreviates: reference 3: association 360 s, dissociation 600 s at 30 μl/min, top concentration 2.50E−08 or 6.25E−09 M.

Sequence of human alpha1 nicotinic acetylcholine (nACh) receptor (P02708 21-457): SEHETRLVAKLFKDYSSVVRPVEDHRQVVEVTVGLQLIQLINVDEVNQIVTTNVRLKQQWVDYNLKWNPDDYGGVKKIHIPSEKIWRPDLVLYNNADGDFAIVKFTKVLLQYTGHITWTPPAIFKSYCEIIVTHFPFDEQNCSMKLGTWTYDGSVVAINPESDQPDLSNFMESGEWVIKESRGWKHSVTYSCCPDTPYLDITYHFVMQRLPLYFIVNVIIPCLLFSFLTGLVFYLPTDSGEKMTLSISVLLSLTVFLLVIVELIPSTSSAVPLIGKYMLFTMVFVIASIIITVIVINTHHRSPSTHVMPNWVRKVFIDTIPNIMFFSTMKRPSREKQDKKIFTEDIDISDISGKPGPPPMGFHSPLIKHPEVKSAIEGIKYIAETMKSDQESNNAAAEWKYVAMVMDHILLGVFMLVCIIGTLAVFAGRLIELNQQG
Sequence of human alpha1 nicotinic acetylcholine (nACh) receptor (P11230 24-501 partner): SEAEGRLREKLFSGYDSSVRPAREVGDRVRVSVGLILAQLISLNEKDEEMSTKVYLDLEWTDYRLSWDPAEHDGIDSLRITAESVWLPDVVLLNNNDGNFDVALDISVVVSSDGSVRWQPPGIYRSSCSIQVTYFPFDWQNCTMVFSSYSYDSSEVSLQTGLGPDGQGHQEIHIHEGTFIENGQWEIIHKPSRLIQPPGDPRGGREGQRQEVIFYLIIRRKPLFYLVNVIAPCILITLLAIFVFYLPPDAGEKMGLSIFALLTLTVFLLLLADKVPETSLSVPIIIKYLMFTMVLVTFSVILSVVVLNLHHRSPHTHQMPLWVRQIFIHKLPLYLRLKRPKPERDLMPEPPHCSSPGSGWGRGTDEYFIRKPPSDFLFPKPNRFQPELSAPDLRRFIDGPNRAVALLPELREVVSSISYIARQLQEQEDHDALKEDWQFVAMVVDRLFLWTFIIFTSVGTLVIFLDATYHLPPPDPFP
Sequence of human alpha1 nicotinic acetylcholine (nACh) receptor (Q07001 22-517): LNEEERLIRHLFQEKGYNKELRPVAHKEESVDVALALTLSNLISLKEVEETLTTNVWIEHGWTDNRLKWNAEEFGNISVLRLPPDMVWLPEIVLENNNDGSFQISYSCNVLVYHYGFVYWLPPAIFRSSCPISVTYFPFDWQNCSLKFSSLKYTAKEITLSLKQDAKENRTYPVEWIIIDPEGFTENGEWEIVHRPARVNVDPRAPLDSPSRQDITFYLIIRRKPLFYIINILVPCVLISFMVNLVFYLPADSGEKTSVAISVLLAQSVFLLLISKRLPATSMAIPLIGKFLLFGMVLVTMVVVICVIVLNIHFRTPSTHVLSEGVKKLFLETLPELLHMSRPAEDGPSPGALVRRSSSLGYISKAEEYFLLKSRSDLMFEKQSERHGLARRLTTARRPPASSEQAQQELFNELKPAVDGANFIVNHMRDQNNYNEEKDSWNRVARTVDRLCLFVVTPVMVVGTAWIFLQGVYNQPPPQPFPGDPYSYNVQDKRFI

What is called pKd is the negative decadic logarithm of the Kd, by convention in mol/L. A higher pKd goes with a low Kd. In general, IC50 refers to the point on the concentration scale where inhibition reaches its midpoint. A lower IC50 goes with inhibition by little substance. In test [1] (setting [4]), `CC(C)N(C)[C@@H]1CC[C@H](N2CC[C@H](Nc3ncnc4ccc(C(F)(F)F)cc34)C2=O)[C@H](NC(=O)[C@H]2CC[C@H](NC(=O)CCCO[C@H]3CC[C@H](OCCNC(=O)[C@H]4CC(=O)N(C)[C@@H]4c4cccnc4)CC3)CC2)C1` [Example 1, (2S,3S)-N-(2-(((1R,4S)-4-(4-(((1R,4R)-4-(((1R,2S,5R)-5-(Isopropyl(methyl)amino)-2-((S)-2-oxo-3-((6-(trifluoromethyl)quinazolin-4-yl)amino)pyrrolidin-1-yl)cyclohexyl)carbamoyl)cyclohexyl)amino)-4-oxobutoxy)cyclohexyl)oxy)ethyl)-1-methyl-5-oxo-2-(pyridin-3-yl)pyrrolidine-3-carboxamide] returned a ka of 5.57e+06 M⁻¹ s⁻¹, a kd of 0.000156 s⁻¹ and a pKd of 10.55. Besides, the Emax at 100 µM in test [2] (maximum percentage antagonism at maximum concentration tested 100 μM, read-out: Maximum Response (%)) was determined as 25.6%. The 50% inhibitory concentration (IC50) in test [2] was 84.6 µM. Further, the “pKd of Antibody for ARM Compound of Formula (I)” value (“pKd of Antibody” below) in test [3] was determined as 9.654.
For `CN1C(=O)C[C@H](C(=O)NCCO[C@H]2CC[C@H](OCCCC(=O)N[C@H]3CC[C@H](C(=O)N[C@@H]4C[C@H](NC(C)(C)C)CC[C@@H]4N4CC[C@H](Nc5ncnc6ccc(C(F)(F)F)cc56)C4=O)CC3)CC2)[C@H]1c1cccnc1` [Example 10], the negative logarithm of the Kd (pKd) entry in test [1] (reference 2: association 240 s, dissociation 300 s at 30 μl/min, top concentration 1.00E−06 or 4.00E−06 M) is given as “Poor fit”. The Emax at 33.33 µM in test [2] (maximum percentage antagonism at maximum concentration tested 33.33 μM, read-out: Maximum Response (%)) amounted to 48%. For the same compound, the half-inhibitory concentration (IC50) in test [2] is > 33.3 µM. For the same compound, in test [3], the “pKd of Antibody” value is given as 9.199.
For `CN1C(=O)C[C@H](C(=O)NCCOCCOCCOCCOCCOCCC(=O)N[C@@H]2C[C@H](NC(C)(C)C)CC[C@@H]2N2CC[C@H](Nc3ncnc4ccc(C(F)(F)F)cc34)C2=O)[C@H]1c1cccnc1` [Example 37], the Emax at 10 µM in test [2] (read-out: Maximum Response (%)) turned out to be 7.3%. Also, the half-inhibitory concentration (IC50) in test [2] was > 10 µM. For the same compound, the “pKd of Antibody” value in test [3] is 9.7475.
The corresponding values for `CN1C(=O)C[C@H](C(=O)NCCOCCOCCOCCOCCOCCOCCC(=O)N[C@@H]2C[C@H](NC(C)(C)C)CC[C@@H]2N2CC[C@H](Nc3ncnc4ccc(C(F)(F)F)cc34)C2=O)[C@H]1c1cccnc1` [Example 38] are -2.2%, > 10 µM and 9.611.
